# From patent publication US4112228A, “7-(D-α-Hydroxy-2-arylacetamido)-3-(2-carboxyalkyl-2,3-dihydro-s-tri azolo-[4,3-b]pyridazin-3-on-6-ylthiomethyl)-3-cephem-4-carboxylic acids and derivatives” (priority 1977, dated 1978)
# Assays:
# [1] = Urinary recovery in rats; type: in vivo; conditions: rat, urine, sc 10 mg./kg., 0-24 Hrs.
# [2] = tested on: Pr. morganii; test: MIC by Steers' agar dilution method; conditions: Morganella morganii
# [3] = tested on: Kl. pneumoniae; test: MIC by Steers' agar dilution method; type: cell-based; conditions: Klebsiella pneumoniae
# [4] = tested on: Citrobacter sp.; test: MIC by Steers' agar dilution method
# [5] = tested on: Enterob. cloacae; test: MIC by Steers' agar dilution method
smiles,measurement,setting,value
"O=C(O)Cn1nc2ccc(SCC3=C(C(=O)O)N4C(=O)C(NC(=O)[C@H](O)c5ccccc5)[C@H]4SC3)nn2c1=O (stereo partly drawn) [BB-S488, 7-(D-Mandelamido)-3-(2-carboxymethyl-2,3-dihydro-s-triazolo[4,3-b]pyridazin-3-on-6-ylthiomethyl)-3-cephem-4-carboxylic Acid]",dose excreted at 24 h,[1],38.8%
same,MIC,"[2]; A9553, MHA, Table 1",> 100 µg/mL
same,MIC,"[2]; A20031, MHA, Table 1",0.1 µg/mL
same,MIC,"[2]; Pg-1 A9553 (β-lactamase), HIA, Table 4",> 100 µg/mL
same,MIC,"[2]; Pg-1 A9553 (β-lactamase), MHA, Table 4",> 100 µg/mL
same,MIC,"[2]; Pg-1 A9553 (β-lactamase), NA, Table 4",> 100 µg/mL
same,MIC,"[2]; Pg-1 A9553, MHA, Table 3",> 100 µg/mL
same,MIC,"[2]; Pg-2 A20031, HIA, Table 4",0.2 µg/mL
same,MIC,"[2]; Pg-2 A20031, MHA, Table 3",0.2 µg/mL
same,MIC,"[2]; Pg-2 A20031, MHA, Table 4",0.1 µg/mL
same,MIC,"[2]; Pg-2 A20031, NA, Table 4",0.2 µg/mL
same,MIC,"[2]; Pg-3 A9636, MHA, Table 3",0.8 µg/mL
same,MIC,"[2]; Pg-5 A15166, MHA, Table 3",0.1 µg/mL
same,MIC,"[2]; Pg-6 A20455 (β-lactamase), HIA, Table 4",0.8 µg/mL
same,MIC,"[2]; Pg-6 A20455 (β-lactamase), MHA, Table 4",0.4 µg/mL
same,MIC,"[2]; Pg-6 A20455 (β-lactamase), NA, Table 4",0.4 µg/mL
same,MIC,"[2]; Pg-6 A20455, MHA, Table 3",0.4 µg/mL
same,MIC,"[2]; Pg-7 A20457, MHA, Table 3",0.2 µg/mL
same,MIC,"[2]; Pg-8 A15153, MHA, Table 3",0.1 µg/mL
same,MIC,"[2]; Pg-9 A15149, MHA, Table 3",0.8 µg/mL
same,MIC,"[2]; strain not given (1st of 2), MHA, Example 10",> 100 µg/mL
same,MIC,"[2]; strain not named (2nd of 2), MHA, Example 10",0.2 µg/mL
same,MIC,"[3]; A9678, MHA, Table 1",3.1 µg/mL
same,MIC,"[3]; A9867, MHA, Table 1",0.2 µg/mL
same,MIC,"[3]; A9977, MHA, Table 1",0.05 µg/mL
same,MIC,"[3]; A15130, MHA, Table 1",0.2 µg/mL
same,MIC,"[3]; Kp-1 D11, MHA, Table 3",0.1 µg/mL
same,MIC,"[3]; Kp-2 A9678, MHA, Table 3",3.1 µg/mL
same,MIC,"[3]; Kp-3 A9977, HIA, Table 4",0.2 µg/mL
same,MIC,"[3]; Kp-3 A9977, MHA, Table 3",0.1 µg/mL
same,MIC,"[3]; Kp-3 A9977, MHA, Table 4",0.2 µg/mL
same,MIC,"[3]; Kp-3 A9977, NA, Table 4",0.4 µg/mL
same,MIC,"[3]; Kp-4 A15130, HIA, Table 4",0.8 µg/mL
same,MIC,"[3]; Kp-4 A15130, MHA, Table 3",0.2 µg/mL
same,MIC,"[3]; Kp-4 A15130, MHA, Table 4",0.4 µg/mL
same,MIC,"[3]; Kp-4 A15130, NA, Table 4",0.8 µg/mL
same,MIC,"[3]; Kp-7 A9867, MHA, Table 3",0.4 µg/mL
same,MIC,"[3]; Kp-8 A20680, MHA, Table 3",25 µg/mL
same,MIC,"[3]; Kp-9 A20636, MHA, Table 3",12.5 µg/mL
same,MIC,"[3]; Kp-10 A20328, MHA, Table 3",6.3 µg/mL
same,MIC,"[3]; Kp-11 A20330, MHA, Table 3",1.6 µg/mL
same,MIC,"[3]; Kp-12 A21228, MHA, Table 3",6.3 µg/mL
same,MIC,"[3]; strain not named (1st of 4), MHA, Example 10",3.1 µg/mL
same,MIC,"[3]; strain not named (2nd of 4), MHA, Example 10",0.1 µg/mL
same,MIC,"[3]; strain not named (3rd of 4), MHA, Example 10",0.4 µg/mL
same,MIC,"[3]; strain not named (4th of 4), MHA, Example 10",0.2 µg/mL
same,MIC,[4]; Citrobacter,1.6 µg/mL
same,MIC,"[4]; Cx-2 A20694, MHA, Table 3",1.6 µg/mL
same,MIC,"[4]; Cx-3 A20695, MHA, Table 3",1.6 µg/mL
same,MIC,"[5]; A9656, MHA, Table 1",3.1 µg/mL
same,MIC,"[5]; El-1 A9656, HIA, Table 4",6.3 µg/mL
same,MIC,"[5]; El-1 A9656, MHA, Table 3",3.1 µg/mL
same,MIC,"[5]; El-1 A9656, MHA, Table 4",3.1 µg/mL
same,MIC,"[5]; El-1 A9656, NA, Table 4",12.5 µg/mL
same,MIC,"[5]; El-2 A20364 (β-lactamase), HIA, Table 4",6.3 µg/mL
same,MIC,"[5]; El-2 A20364 (β-lactamase), MHA, Table 4",3.1 µg/mL
same,MIC,"[5]; El-2 A20364 (β-lactamase), NA, Table 4",12.5 µg/mL
same,MIC,"[5]; El-2 A20364, MHA, Table 3",3.1 µg/mL
